{"source": "ChEMBL document CHEMBL5230087", "about": "“Inhibitors of SARS-CoV-2 Entry: Current and Future Opportunities” (J Med Chem, 2020)", "key": {"[1]": {"test": "Selectivity index, ratio of CC50 for African green monkey Vero cells to EC50 for SARS-CoV-2 nCoV-2019", "type": "toxicity", "settings": "read-out: Selectivity Index"}, "[2]": {"test": "Cytotoxicity against african green monkey Vero cells incubated for 3 days", "type": "toxicity, cell-based", "settings": "chlorocebus sabaeus, time 3 day"}, "[3]": {"test": "Inhibition of clathrin mediated endocytosis (unknown origin)", "parameters": "species or system Homo sapiens"}, "[4]": {"target": "T1, Angiotensin-converting enzyme 2 (Homo sapiens, UniProt Q9BYF1)", "T1 sequence (Q9BYF1 whole entry)": "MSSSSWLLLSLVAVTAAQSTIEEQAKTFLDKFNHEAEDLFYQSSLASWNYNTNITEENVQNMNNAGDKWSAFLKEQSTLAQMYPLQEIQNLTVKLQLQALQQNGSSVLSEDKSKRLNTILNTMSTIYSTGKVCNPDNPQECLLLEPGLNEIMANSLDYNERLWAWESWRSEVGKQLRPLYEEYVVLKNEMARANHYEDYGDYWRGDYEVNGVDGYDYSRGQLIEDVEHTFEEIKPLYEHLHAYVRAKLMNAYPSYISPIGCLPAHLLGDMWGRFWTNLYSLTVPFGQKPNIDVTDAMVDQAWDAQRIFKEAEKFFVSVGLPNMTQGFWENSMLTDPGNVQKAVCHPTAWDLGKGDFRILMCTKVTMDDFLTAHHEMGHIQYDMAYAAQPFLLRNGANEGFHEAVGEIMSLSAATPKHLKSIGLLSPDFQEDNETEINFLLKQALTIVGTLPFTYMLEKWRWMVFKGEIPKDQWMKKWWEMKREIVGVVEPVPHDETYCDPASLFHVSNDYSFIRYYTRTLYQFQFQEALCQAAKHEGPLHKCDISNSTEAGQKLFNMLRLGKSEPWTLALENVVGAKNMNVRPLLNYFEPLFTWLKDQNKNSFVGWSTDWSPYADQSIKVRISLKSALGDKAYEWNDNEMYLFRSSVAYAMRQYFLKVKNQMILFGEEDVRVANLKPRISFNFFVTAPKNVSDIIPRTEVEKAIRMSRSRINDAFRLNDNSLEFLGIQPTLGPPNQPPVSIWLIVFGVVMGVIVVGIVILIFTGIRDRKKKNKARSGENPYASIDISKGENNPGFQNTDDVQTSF", "test": "Binding affinity to ACE2 (unknown origin) at 10 uM assessed as inhibition constant"}, "Procathepsin L": {"target": "Procathepsin L (Homo sapiens, UniProt P07711)", "sequence (P07711 whole entry)": "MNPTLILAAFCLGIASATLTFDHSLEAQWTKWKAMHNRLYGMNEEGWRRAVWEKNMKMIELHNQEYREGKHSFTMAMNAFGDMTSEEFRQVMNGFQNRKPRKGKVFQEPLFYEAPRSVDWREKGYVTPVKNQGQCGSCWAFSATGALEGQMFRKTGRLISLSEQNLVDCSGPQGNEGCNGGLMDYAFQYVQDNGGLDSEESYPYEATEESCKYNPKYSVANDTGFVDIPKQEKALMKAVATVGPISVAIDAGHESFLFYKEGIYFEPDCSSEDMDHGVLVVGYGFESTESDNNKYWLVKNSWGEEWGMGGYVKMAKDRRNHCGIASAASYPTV", "test": "Inhibition of human recombinant Cathepsin L […] using Z-FR-AMC as substrate incubated for 30 mins by fluorometric assay"}, "[5]": {"target": "T1, Angiotensin-converting enzyme 2", "test": "Inhibition of human recombinant ACE2 at 50 uM using (7Mca-Y-V-A- D -A-P- K(Knp) as a flurogenic substrate measured after 10 mins by fluorescence based analysis"}, "[6]": {"test": "Antiviral activity against pseudovirus SARS-CoV spike protein infected in HeLa cells over expressing ACE2 assessed as inhibition on pseudovirus infection incubated for 52 hrs by luminescence based microplate reader analysis", "type": "functional, cell-based"}, "[7]": {"test": "Antiviral activity against HCoV-NL63 assessed as viral growth inhibition", "type": "functional, Human coronavirus NL63"}, "Human coronavirus OC43": {"test_system": "Human coronavirus OC43", "test": "Antiviral activity against HCoV-OC43 assessed as viral growth inhibition", "type": "functional, organism-based", "settings": "Betacoronavirus 1"}, "Mus musculus": {"test_system": "Mus musculus", "test": "Antiviral activity against MERS-COV infected in BALB/c mouse at 5 mg/kg", "type": "functional, organism-based"}, "Human coronavirus 229E": {"test_system": "Human coronavirus 229E", "test": "Antiviral activity against HCoV-229E", "type": "functional, organism-based"}, "[8]": {"test": "Inhibition of MERS-CoV Main protease", "parameters": "species or system Middle East respiratory syndrome-related coronavirus"}, "[9]": {"target": "T1, Angiotensin-converting enzyme 2", "test": "Inhibition of SARS-CoV S binding to human recombinant ACE2 expressed in Escherichia coli BL21(DE3) incubated for 2 hrs by ELISA method"}}, "note": "Square brackets hold non-standard residues; d marks the D form. Peptide text beside a SMILES is read from it. * marks the point of attachment. ξ: configuration not given here. ξF = NC(Cc1ccccc1)C(=O)O; Cbz = O=C(OCc1ccccc1)*"}
{"smiles": "O=C(OC[C@H]1O[C@@H](OC(=O)c2cc(O)c(O)c(O)c2)[C@H](OC(=O)c2cc(O)c(O)c(O)c2)[C@H](OC(=O)c2cc(O)c(O)c(O)c2)[C@@H]1O)c1cc(O)c(O)c(O)c1", "values": [{"measurement": "selectivity ratio", "setting": "[1]", "value": 240}, {"measurement": "CC50 at 72 h", "setting": "[2]", "value": 1080, "unit": "µM"}]}
{"smiles": "CN(C)CCCN1c2ccccc2Sc2ccc(Cl)cc21", "note": "[CHLORPROMAZINE]", "values": [{"measurement": "IC50", "setting": "[3]", "value": 7.24, "unit": "µM"}]}
{"smiles": "NCCNCCN1CC1", "values": [{"measurement": "Ki", "setting": "[4]", "value": 459, "unit": "µM"}]}
{"smiles": "CN(C)C(=O)COC(=O)Cc1ccc(OC(=O)c2ccc(NC(=N)N)cc2)cc1", "note": "[CAMOSTAT]", "values": [{"measurement": "IC50", "setting": "Procathepsin L", "value": 10, "unit": "µM"}]}
{"smiles": "CC(C)CC(CC(=O)NO)C(=O)NC(C(=O)NC(C)C(=O)NCCN)C(C)(C)C", "note": "(stereo not given)", "values": [{"measurement": "IC50", "setting": "[5]", "value": 0.2, "unit": "µM"}]}
{"smiles": "COc1ccc(S(=O)(=O)O)cc1/N=N/c1c(S(=O)(=O)O)cc2cc(Nc3nc(Nc4ccccc4)nc(Nc4cc(C)c(/N=N/c5cc(S(=O)(=O)O)cc6cc(S(=O)(=O)O)cc(O)c56)cc4OC)n3)ccc2c1O", "values": [{"measurement": "CC50 at 72 h", "setting": "[2]", "value": 26.9, "unit": "µM"}]}
{"smiles": "CC(C)[C@H](NC(=O)OCc1ccccc1)C(=O)NC(C=O)Cc1ccccc1", "note": "(stereo partly drawn) (Cbz-Val-[ξF]-aldehyde)", "values": [{"measurement": "EC50", "setting": "[6]", "value": 0.1, "unit": "µM"}]}
{"smiles": "CC[C@H](C)[C@H](NC(=O)[C@H](C)NC(=O)[C@H](CCC(=O)O)NC(=O)[C@H](CCC(=O)O)NC(=O)[C@H](CC(C)C)NC(=O)[C@H](CCCCN)NC(=O)[C@H](CCCCN)NC(=O)[C@H](CCSC)NC(=O)[C@H](CCC(=O)O)NC(=O)[C@H](Cc1ccc(O)cc1)NC(=O)[C@H](CCC(=O)O)NC(=O)[C@H](CC(C)C)NC(=O)[C@H](CC(=O)O)NC(=O)[C@H](CC(C)C)NC(=O)[C@H](Cc1ccccc1)NC(=O)[C@@H](NC(=O)[C@@H](NC(=O)[C@H](CC(N)=O)NC(=O)[C@@H](NC(=O)[C@H](CCC(N)=O)NC(=O)[C@H](CC(=O)O)NC(=O)[C@H](CC(C)C)NC(=O)[C@@H](N)CO)[C@@H](C)CC)C(C)C)[C@@H](C)O)C(=O)N[C@@H](CCCCN)C(=O)N[C@@H](CCCCN)C(=O)N[C@@H](CC(C)C)C(=O)N[C@@H](CCC(=O)O)C(=O)N[C@@H](CCC(=O)O)C(=O)N[C@@H](CO)C(=O)N[C@@H](Cc1ccc(O)cc1)C(=O)N[C@H](C(=O)N[C@@H](CC(=O)O)C(=O)N[C@@H](CC(C)C)C(=O)N[C@@H](CCCCN)C(=O)N[C@@H](CCC(=O)O)C(=O)N[C@@H](CC(C)C)C(=O)O)[C@@H](C)CC", "values": [{"measurement": "IC50", "setting": "[7]", "value": 6.02, "unit": "µM"}, {"measurement": "IC50", "setting": "Human coronavirus OC43", "value": 1.81, "unit": "µM"}, {"measurement": "IC50", "setting": "Mus musculus", "value": 2.38, "unit": "µM"}, {"measurement": "IC50", "setting": "Human coronavirus 229E", "value": 3.35, "unit": "µM"}, {"measurement": "IC50", "setting": "[8]", "value": 0.19, "unit": "µM"}]}
{"smiles": "CC[C@H](C)[C@H](NC(=O)CNC(=O)[C@@H](NC(=O)[C@@H](NC(=O)[C@@H](NC(=O)[C@H](Cc1ccc(O)cc1)NC(=O)[C@@H](N)Cc1ccccc1)[C@@H](C)O)[C@@H](C)O)[C@@H](C)O)C(=O)NCC(=O)N[C@@H](Cc1ccc(O)cc1)C(=O)N[C@@H](CCC(N)=O)C(=O)N1CCC[C@@H]1C(=O)N[C@H](Cc1ccc(O)cc1)C(=O)O", "values": [{"measurement": "IC50", "setting": "[9]", "value": 0.00699, "unit": "µM"}]}
{"smiles": "CC(CN1c2ccccc2Sc2ccccc21)N(C)C", "note": "(stereo not given) [PROMETHAZINE]", "values": [{"measurement": "IC50", "setting": "[3]", "value": 7.48, "unit": "µM"}]}
{"smiles": "C=C(N[C@@H](CCCN=C(N)N)C(=O)Cl)[C@@H](CCCCN)NC(=O)[C@H](NC(=O)[C@H](CCCN=C(N)N)NC(=O)CCCCCCCCCC)C(C)C", "values": [{"measurement": "IC50", "setting": "Procathepsin L", "value": 75, "unit": "µM"}]}
{"smiles": "O=C(NC(Cc1ccccc1)C(=O)N1CCC(O)(c2ccc(Br)cc2)CC1)c1ccccc1", "note": "(stereo not given)", "values": [{"measurement": "EC50", "setting": "Human coronavirus 229E", "value": 110, "unit": "µM"}]}
{"smiles": "CC(C)CC(NC(Cc1cncn1Cc1cc(Cl)cc(Cl)c1)C(=O)O)C(=O)O", "note": "(stereo not given)", "values": [{"measurement": "IC50", "setting": "[5]", "value": 0.00044, "unit": "µM"}]}
{"smiles": "CC(C)CC(CC(=O)NO)C(=O)NC(Cc1ccc2ccccc2c1)C(=O)NC(C)C(N)=O", "note": "(stereo not given)", "values": [{"measurement": "IC50", "setting": "[5]", "value": 0.1, "unit": "µM"}]}
{"smiles": "CC[C@H](C)[C@@H](NC(=O)[C@H]1CCCN1C(=O)[C@H](CCC(N)=O)NC(=O)[C@H](Cc1ccc(O)cc1)NC(=O)CNC(=O)[C@H](CCCCN)NC(=O)[C@H](Cc1ccc(O)cc1)NC(=O)[C@@H](NC(=O)[C@H](Cc1ccc(O)cc1)NC(=O)[C@H](CC(C)C)NC(=O)[C@H](Cc1ccccc1)NC(=O)CN)C(C)C)C(=O)O", "values": [{"measurement": "IC50", "setting": "[9]", "value": 0.0043, "unit": "µM"}]}
